Measured values published in US4093724A, “Novel-3-(4-quinolylamino)-2-thiophene-carboxylates” (Roussel Uclaf, priority 1976, dated 1978).
Structures can show the parent of a compound that is named as a salt.

Tested on: mice (stretching and twisting provoked by intraperitoneal injection of acetic acid)
Experiment: Analgesic Activity: acetic acid-induced stretching test in mice (based on Koster et al)
Assay type: in vivo
Conditions: Mus musculus, fasted 24 hours, test product oral 30 minutes before i.p. acetic acid (60 mg/kg), stretchings counted during 15 minutes after injection, read-out: AD50 (dose which reduced by 50% the number of stretching as compared to the controls)
Experimental: The test was based on that of Koster et al [Fed. Proc., Vol. 18 (1959) p. 412] wherein the intraperitoneal injection of acetic acid provokes in mice repeated stretching and twisting which persists for more than 6 hours and an analgesic prevents or suppresses this syndrom which is considered to be the exteriorization of a diffuse abdominal pain. A solution of 0.6% acetic acid in water containing 10% of arabic gum is used and the dose which causes the syndrom under these conditions is 0.01 ml/g or 60 mg/kg of acetic acid. The test products were orally administered 30 minutes before the intraperitoneal injection of acetic acid and the mice were fasted for 24 hours before the test.
For each dose and for the controls required in each test, groups of 5 mice were used and the stretchings were observed and counted for each mouse and added for each group, during a period of 15 minutes right after the injection. The AD50 or dose which reduced by 50% the number of stretching as compared to the controls was determined.

Compound	ED50 [mg/kg]
O=C(OCCN1CCN(c2cccc(C(F)(F)F)c2)CC1)c1sccc1Nc1ccnc2c(C(F)(F)F)cccc12 [Example 1, 2-[4-(3-trifluoromethylphenyl)-1-piperazinyl]-ethyl 3-[8-trifluoromethyl-4-quinolylamino]-2-thiophene-carboxylate dihydrochloride]	20
O=C(OCCN1CCN(c2cccc(C(F)(F)F)c2)CC1)c1sccc1Nc1ccnc2cc(Cl)ccc12 [Example 3, 2-[4-(3-trifluoromethylphenyl)-1-piperazinyl]-ethyl 3-(7-chloro-4-quinolylamino)-2-thiophene-carboxylate]	20
O=C(OCCN1CCN(c2ccc(Cl)cc2)CC1)c1sccc1Nc1ccnc2c(C(F)(F)F)cccc12 [Example 2, 2-[4-(4-chlorophenyl)-1-piperazinyl]-ethyl 3-(8-trifluoromethyl-4-quinolylamino)-2-thiophene-carboxylate]	15
